# Measurements published in US12084444B2, “Spiro-lactam NMDA modulators and methods of using same” (Tenacia Biotechnology (Hong Kong) Co., Limited, priority 2016, dated 2024).
# How the values were obtained:
# Type in all cases: biochemical
# [1] = biological target: T1, NMDAR2B expressing HEK cell membranes (Homo sapiens, UniProt Q05586+Q13224); assay: NMDAR agonist assay, [3H]MK-801 binding, NMDAR2B; parameters: key to NMDAR2B B: log EC50: 0=−; ≥1×10^−9 M (e.g., −8)=+; <1×10^−9 M (e.g., −10)=++; details: 50 μM glutamate; for EC50: read-out: NMDAR2B B: log EC50 (converted); for Emax: 0.25 h, read-out: NMDAR2B A: % maximal [3H]MK-801 binding relative to 1 mM glycine
# T1 construct: expressed in transfected cells; host or cells: HEK cells (membrane extract)
# T1 sequence (Q13224 27-1484, other chains not shown): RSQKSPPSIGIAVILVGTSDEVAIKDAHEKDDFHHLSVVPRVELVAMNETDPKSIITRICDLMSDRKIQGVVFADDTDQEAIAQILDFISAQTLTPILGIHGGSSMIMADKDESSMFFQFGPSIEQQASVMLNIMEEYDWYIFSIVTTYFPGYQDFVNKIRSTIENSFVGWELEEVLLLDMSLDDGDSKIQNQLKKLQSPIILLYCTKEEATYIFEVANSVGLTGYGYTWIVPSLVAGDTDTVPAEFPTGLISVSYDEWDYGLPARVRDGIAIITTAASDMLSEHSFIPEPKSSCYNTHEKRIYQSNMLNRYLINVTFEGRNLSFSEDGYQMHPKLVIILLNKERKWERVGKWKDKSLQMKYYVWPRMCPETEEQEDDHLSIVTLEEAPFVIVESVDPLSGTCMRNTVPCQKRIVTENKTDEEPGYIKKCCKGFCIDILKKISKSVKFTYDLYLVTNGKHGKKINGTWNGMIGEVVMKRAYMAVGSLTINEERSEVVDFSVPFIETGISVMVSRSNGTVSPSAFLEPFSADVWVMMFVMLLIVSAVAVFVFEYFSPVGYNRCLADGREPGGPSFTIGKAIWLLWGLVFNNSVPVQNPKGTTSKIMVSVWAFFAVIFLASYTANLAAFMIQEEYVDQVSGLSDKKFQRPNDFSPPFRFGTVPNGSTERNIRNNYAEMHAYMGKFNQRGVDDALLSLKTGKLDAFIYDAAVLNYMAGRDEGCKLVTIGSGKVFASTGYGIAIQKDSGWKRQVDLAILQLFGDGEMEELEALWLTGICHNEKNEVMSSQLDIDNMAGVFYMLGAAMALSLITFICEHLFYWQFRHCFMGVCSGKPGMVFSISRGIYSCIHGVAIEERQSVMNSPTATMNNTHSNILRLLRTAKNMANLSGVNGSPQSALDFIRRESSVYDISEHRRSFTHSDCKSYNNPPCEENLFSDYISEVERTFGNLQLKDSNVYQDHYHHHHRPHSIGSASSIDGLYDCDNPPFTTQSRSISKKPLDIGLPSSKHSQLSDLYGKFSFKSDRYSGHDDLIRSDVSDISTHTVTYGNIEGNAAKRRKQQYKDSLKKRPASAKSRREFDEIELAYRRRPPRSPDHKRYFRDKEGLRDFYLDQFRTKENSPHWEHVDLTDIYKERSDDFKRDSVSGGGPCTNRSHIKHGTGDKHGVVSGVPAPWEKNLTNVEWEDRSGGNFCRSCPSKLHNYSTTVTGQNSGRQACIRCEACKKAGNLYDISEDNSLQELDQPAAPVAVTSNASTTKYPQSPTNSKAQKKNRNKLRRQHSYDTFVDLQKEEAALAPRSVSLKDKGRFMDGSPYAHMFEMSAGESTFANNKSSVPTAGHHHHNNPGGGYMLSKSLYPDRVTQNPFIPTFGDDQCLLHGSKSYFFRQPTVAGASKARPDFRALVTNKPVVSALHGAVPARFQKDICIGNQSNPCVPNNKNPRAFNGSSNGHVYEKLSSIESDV
# Method: (§1) Assays were conducted as described by Moskal et al., “GLYX-13: a monoclonal antibody-derived peptide that acts as an N-methyl-D-aspartate receptor modulator,” Neuropharmacology, 49, 1077-87, 2005. These studies were designed to determine if the test compounds act to facilitate NMDAR activation in NMDAR2A, NMDAR2B, NMDAR2C or NMDAR2D expressing HEK cell membranes as measured by increases in [^3H]MK-801 binding.
# (§2) In the assay, 300 μg of NMDAR expressing HEK cell membrane extract protein was preincubated for 15 minutes at 25° C. in the presence of saturating concentrations of glutamate (50 μM) and varying concentrations of test compound (1×10^−15 M-1×10^−7 M), or 1 mM glycine. Following the addition of 0.3 μCi of [^3H]MK-801 (22.5 Ci/mmol), reactions were again incubated for 15 minutes at 25° C. (nonequilibrium conditions). Bound and free [^3H]MK-801 were separated via rapid filtration using a Brandel apparatus.
# (§3) In analyzing the data, the DPM (disintegrations per minute) of [^3H]MK-801 remaining on the filter were measured for each concentration of test compound or for 1 mM glycine. The DPM values for each concentration of a ligand (N=2) were averaged. The baseline value was determined from the best fit curve of the DPM values modeled using the GraphPad program and the log(agonist) vs. response(three parameters) algorithm was then subtracted from all points in the dataset. The % maximal [^3H]MK-801 binding was then calculated relative to that of 1 mM glycine: all baseline subtracted DPM values were divided by the average value for 1 mM glycine. The EC50 and % maximal activity were then obtained from the best fit curve of the % maximal [^3H]MK-801 binding data modelled using the GraphPad program and the log(agonist) vs. response(three parameters) algorithm.
# (§4) The tables below summarize the results for the wild type NMDAR agonists NMDAR2A, NMDAR2B, NMDAR2C, and NMDAR2D, and whether the compound is not an agonist (−), is an agonist (+), or is a strong agonist (++), where column A is based on the % maximal [^3H]MK-801 binding relative to 1 mM glycine (−=0; <100%=+; and >100%=++); and column B is based on log EC50 values (0=−; ≥1×10^−9 M (e.g., −8)=+; and <1×10^−9 M (e.g., −10)=++).
# [2] = biological target: T2, NMDAR2A expressing HEK cell membranes (Homo sapiens, UniProt Q05586+Q12879); assay: NMDAR agonist assay, [3H]MK-801 binding, NMDAR2A; parameters: key to NMDAR2A B: log EC50: 0=−; ≥1×10^−9 M (e.g., −8)=+; <1×10^−9 M (e.g., −10)=++; details: 50 μM glutamate; for Emax: 0.25 h, read-out: NMDAR2A A: % maximal [3H]MK-801 binding relative to 1 mM glycine; for EC50: read-out: NMDAR2A B: log EC50 (converted)
# T2 construct: expressed in transfected cells; host or cells: HEK cells (membrane extract)
# Method: as §1, §2, §3, §4
# [3] = biological target: T3, NMDAR2A expressing HEK cell membranes (Homo sapiens, UniProt Q12879); assay: NMDAR agonist assay, [3H]MK-801 binding, NMDAR2A; parameters: key to NMDAR2A B: log EC50: 0=−; ≥1×10^−9 M (e.g., −8)=+; <1×10^−9 M (e.g., −10)=++; details: 50 μM glutamate; for EC50: read-out: NMDAR2A B: log EC50 (converted)
# T3 construct: expressed in transfected cells; host or cells: HEK cells (membrane extract)
# T3 sequence (Q12879 23-1464, other chains not shown): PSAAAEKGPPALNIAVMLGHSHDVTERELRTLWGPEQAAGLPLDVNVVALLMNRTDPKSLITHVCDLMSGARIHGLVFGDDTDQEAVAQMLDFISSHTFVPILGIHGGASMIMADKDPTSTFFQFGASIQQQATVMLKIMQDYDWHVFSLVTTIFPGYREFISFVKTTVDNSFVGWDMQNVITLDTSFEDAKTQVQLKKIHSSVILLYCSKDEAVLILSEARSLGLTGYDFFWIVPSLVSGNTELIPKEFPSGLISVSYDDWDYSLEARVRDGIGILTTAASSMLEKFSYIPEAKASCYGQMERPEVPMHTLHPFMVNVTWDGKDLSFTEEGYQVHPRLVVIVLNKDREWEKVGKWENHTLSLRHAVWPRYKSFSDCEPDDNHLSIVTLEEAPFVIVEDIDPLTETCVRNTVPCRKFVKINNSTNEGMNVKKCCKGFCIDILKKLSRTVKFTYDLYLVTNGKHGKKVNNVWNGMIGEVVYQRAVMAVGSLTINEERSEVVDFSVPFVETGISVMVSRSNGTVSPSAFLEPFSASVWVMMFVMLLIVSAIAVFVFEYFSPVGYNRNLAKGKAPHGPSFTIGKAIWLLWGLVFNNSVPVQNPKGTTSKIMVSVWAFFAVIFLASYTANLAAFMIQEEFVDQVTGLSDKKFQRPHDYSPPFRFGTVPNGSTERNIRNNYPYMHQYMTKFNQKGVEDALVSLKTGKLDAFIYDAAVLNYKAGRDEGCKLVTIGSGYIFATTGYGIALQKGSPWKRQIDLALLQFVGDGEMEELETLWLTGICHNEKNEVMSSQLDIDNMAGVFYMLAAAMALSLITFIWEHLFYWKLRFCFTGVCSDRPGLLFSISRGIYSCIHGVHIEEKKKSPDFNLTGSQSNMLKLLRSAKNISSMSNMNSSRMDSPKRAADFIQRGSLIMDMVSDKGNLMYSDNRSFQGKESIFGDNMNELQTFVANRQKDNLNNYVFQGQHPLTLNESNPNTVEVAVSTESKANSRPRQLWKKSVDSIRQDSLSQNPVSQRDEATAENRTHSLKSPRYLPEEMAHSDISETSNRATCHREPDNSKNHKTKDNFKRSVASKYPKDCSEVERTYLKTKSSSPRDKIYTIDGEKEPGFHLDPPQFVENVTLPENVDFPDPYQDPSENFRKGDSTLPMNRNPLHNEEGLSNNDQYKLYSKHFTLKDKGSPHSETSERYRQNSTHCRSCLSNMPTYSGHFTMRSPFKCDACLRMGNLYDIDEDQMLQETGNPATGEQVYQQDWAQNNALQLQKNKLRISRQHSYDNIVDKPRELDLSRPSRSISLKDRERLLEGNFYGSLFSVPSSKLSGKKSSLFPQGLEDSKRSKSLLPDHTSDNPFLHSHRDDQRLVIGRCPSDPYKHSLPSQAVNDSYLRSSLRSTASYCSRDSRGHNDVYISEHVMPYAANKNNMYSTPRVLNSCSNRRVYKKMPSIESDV
# Method: as §1, §2, §3, §4
# [4] = biological target: T4, NMDAR2B expressing HEK cell membranes (Homo sapiens, UniProt Q13224); assay: NMDAR agonist assay, [3H]MK-801 binding, NMDAR2B; parameters: key to NMDAR2B B: log EC50: 0=−; ≥1×10^−9 M (e.g., −8)=+; <1×10^−9 M (e.g., −10)=++; details: 50 μM glutamate; for EC50: read-out: NMDAR2B B: log EC50 (converted)
# T4 construct: expressed in transfected cells; host or cells: HEK cells (membrane extract)
# T4 sequence (Q13224 27-1484, other chains not shown): as the sequence (Q13224 27-1484, other chains not shown) above
# Method: as §1, §2, §3, §4
EC50 [1] [nM],Emax [1] [%],Emax [2] [%],NMDAR2A B: log EC50 [3],NMDAR2B A: % maximal [3H]MK-801 binding relative to 1 mM glycine [4],EC50 [4] [nM],NMDAR2A A: % maximal [3H]MK-801 binding relative to 1 mM glycine [3],EC50 [3] [nM],EC50 [2] [nM],NMDAR2B B: log EC50 [4],SMILES
< 1,< 100,0,−,,,,,,,"CC1CC(=O)N(c2ccc(F)cc2)C12CN(Cc1ccccc1)C2=O (single isomer, unassigned) [BX, 2-benzyl-5-(4-fluorophenyl)-8-methyl-2,5-diazaspiro[3.4]octane-1,6-dione]"
< 1,< 100,0,−,,,,,,,"CC1CC(=O)N(c2ccc(F)cc2)C12CN(CC(N)=O)C2=O (single isomer, unassigned) [CF, 2-(5-(4-fluorophenyl)-8-methyl-1,6-dioxo-2,5-diazaspiro[3.4]octan-2-yl)acetamide]"
< 1,< 100,0,−,,,,,,,"CC1C(N)C(=O)N(C)C12CN(Cc1ccccc1)C2=O (single isomer, unassigned) [CG, 7-amino-2-benzyl-5,8-dimethyl-2,5-diazaspiro[3.4]octane-1,6-dione]"
,,,,++ (>100%=++),< 1,+ (<100%=+),< 1,,,"COc1ccc(CN2CC3(CCN(C)C(=O)C3)C2=O)cc1 (single isomer, unassigned) [CJ, 2-(4-methoxybenzyl)-7-methyl-2,7-diazaspiro[3.5]nonane-1,6-dione]"
< 1,< 100,< 100,,,,,,< 1,,"COc1ccc(CN2CC3(CCNC(=S)C3)C2=O)cc1 (single isomer, unassigned) [CN, 2-(4-methoxybenzyl)-6-thioxo-2,7-diazaspiro[3.5]nonan-1-one]"
,,< 100,,− (−=0),,,,< 1,−,"COc1ccc(CN2CC3(CCNC(=S)C3)C2=S)cc1 (single isomer, unassigned) [CO, 2-(4-methoxybenzyl)-2,7-diazaspiro[3.5]nonane-1,6-dithione]"
< 1,,< 100,,++ (>100%=++),,,,< 1,,"COc1ccc(CN2CC3(CCN(CC(C)C)C(=O)C3)C2=O)cc1 (single isomer, unassigned) [CS, 7-isobutyl-2-(4-methoxybenzyl)-2,7-diazaspiro[3.5]nonane-1,6-dione]"
,,,,− (−=0),,+ (<100%=+),< 1,,−,"COc1ccc(CN2CC3(CCN(CC(C)C)C(=O)C3)C2=O)cc1 (single isomer, unassigned) [CT, 7-isobutyl-2-(4-methoxybenzyl)-2,7-diazaspiro[3.5]nonane-1,6-dione]"
< 1,< 100,,−,,,− (−=0),,,,"O=C1CC2(CCN1)CN(Cc1ccccc1)C2=O (single isomer, unassigned) [CU, 2-benzyl-2,7-diazaspiro[3.5]nonane-1,6-dione]"
< 1,> 100,< 100,,,,,,< 1,,"CN1CCC2(CC1=O)CN(Cc1ccccc1)C2=O (single isomer, unassigned) [CW, 2-benzyl-7-methyl-2,7-diazaspiro[3.5]nonane-1,6-dione]"
,,,,+ (<100%=+),< 1,+ (<100%=+),< 1,,,"CN1CCC2(CC1=O)CN(Cc1ccccc1)C2=O (single isomer, unassigned) [CX, 2-benzyl-7-methyl-2,7-diazaspiro[3.5]nonane-1,6-dione]"
,0,< 100,,,,,,< 1,−,"CCN1CCC2(CC1=O)CN(Cc1ccccc1)C2=O (single isomer, unassigned) [CY, 2-benzyl-7-ethyl-2,7-diazaspiro[3.5]nonane-1,6-dione]"
,,,,,,,,≥ 1,−,"CCN1CCC2(CC1=O)CN(Cc1ccccc1)C2=O (single isomer, unassigned) [CZ, 2-benzyl-7-ethyl-2,7-diazaspiro[3.5]nonane-1,6-dione]"
< 1,> 100,0,−,,,,,,,"CNC(=O)[C@H]([C@@H](C)O)N1CC2(CCNC(=O)C2)C1=O (single isomer, unassigned) [DB]"
< 1,< 100,,,,,+ (<100%=+),,< 1,,"NC(=O)CN1CC2(CCNC(=O)C2)C1=O (single isomer, unassigned) [DC, 2-(1,6-dioxo-2,7-diazaspiro[3.5]nonan-2-yl)acetamide]"
,,,−,+ (<100%=+),< 1,− (−=0),,,,"NC(=O)CN1CC2(CCNC(=O)C2)C1=O (single isomer, unassigned) [DD, 2-(1,6-dioxo-2,7-diazaspiro[3.5]nonan-2-yl)acetamide]"
< 1,< 100,< 100,,,,,,< 1,,"CC(C)CN1CC2(CCNC(=O)C2)C1=O (single isomer, unassigned) [DE, 2-isobutyl-2,7-diazaspiro[3.5]nonane-1,6-dione]"
,,,,,< 1,,< 1,,,"CC(C)CN1CC2(CCNC(=O)C2)C1=O (single isomer, unassigned) [DF, 2-isobutyl-2,7-diazaspiro[3.5]nonane-1,6-dione]"
,,< 100,,− (−=0),,,,< 1,−,"CN1CC2(CCNC(=O)C2)C1=O (single isomer, unassigned) [DG, 2-methyl-2,7-diazaspiro[3.5]nonane-1,6-dione]"
< 1,< 100,,,,,+ (<100%=+),,< 1,,"CC1CC(=O)N(C)C12CN(CC(N)=O)C2=O (single isomer, unassigned) [DI, 2-(5,8-dimethyl-1,6-dioxo-2,5-diazaspiro[3.4]octan-2-yl)acetamide]"
,,,−,+ (<100%=+),< 1,− (−=0),,,,"CC1CC(=O)N(C)C12CN(CC(N)=O)C2=O (single isomer, unassigned) [DJ, 2-(5,8-dimethyl-1,6-dioxo-2,5-diazaspiro[3.4]octan-2-yl)acetamide]"
,0,> 100,,,,,,≥ 1,−,"CC1CC(=O)N(c2ccc(F)cc2)C12CN([C@H](C(N)=O)[C@@H](C)O)C2=O (single isomer, unassigned) [DK]"
,0,< 100,,,,,,≥ 1,−,"CC1C(O)C(=O)N(C)C12CN(Cc1ccccc1)C2=O (single isomer, unassigned) [DM, 2-benzyl-7-hydroxy-5,8-dimethyl-2,5-diazaspiro[3.4]octane-1,6-dione]"
,,,,,,,,< 1,−,"CC1C(O)C(=O)N(C)C12CN(Cc1ccccc1)C2=O (single isomer, unassigned) [DN, 2-benzyl-7-hydroxy-5,8-dimethyl-2,5-diazaspiro[3.4]octane-1,6-dione]"
